# According to patent US9260504B2, “N- and C-terminal substituted antagonistic analogs of GH-RH” (University of Miami, priority 2008, dated 2016):
# Marks after values point to notes of the source that are not given here.
# Key:
# [1] = test system: Panc-1 human pancreatic cancer; test: Panc-1 human pancreatic cancer xenografts in nude mice; type: in vivo; details: 10 μg/day s.c. for 36 days
# Description: Panc-1 cancers were transplanted s.c. into both flank areas of 60 female nude mice, and allowed to grow for 105 days before starting the treatment with GH-RH antagonists. The mice were randomly assigned into 3 experimental groups with 8 animals in each group and received single daily injections for 36 days as follows: 1. Control (vehicle solution); 2. JMR-132 (10 μg/day s.c.); 3. Peptide 11457 (10 μg/day s.c.). Tumor volumes were measured once a week. The experiment was ended on day 82 by sacrificing the mice under Isoflurane anesthesia. Resulting tumors were cleaned, weighed, and snap-frozen until further analyses. Statistical analyses of the measurement results were done by two-tailed t-test, p<0.05 being considered significant. Data are presented as the means±S.E.
# [2] = test system: PC-3 human hormone-independent prostate cancer; test: PC-3 human prostate cancer xenografts in nude mice, Experiment 3; type: in vivo; details: 2 μg/day s.c., 28 days
# Description: Male nude mice were implanted s.c. with 3 mm^3 pieces of PC-3 human hormone-independent prostate cancer tissue on both flanks. When tumors reached a volume of approximately 50 mm^3, the mice were divided into 12 experimental groups with 8 to 10 animals in each group and received single daily injections for 28 days as follows: 1. Control (vehicle solution); 2. JMR-132 (10 μg/day s.c.); 3. Peptide 11113 (2 μg/day s.c.); 4. Peptide 11119 (2 μg/day s.c.); 5. Peptide 11209 (2 μg/day s.c.); 6. Peptide 11313 (2 μg/day s.c.); 7. Peptide 11408 (2 μg/day s.c.); 8. Peptide 11435 (2 μg/day s.c.); 9. Peptide 11457 (2 μg/day s.c.); 10. Peptide 11459 (2 μg/day s.c.); 11. Peptide 11469 (2 μg/day s.c.); 12. Peptide 11491 (2 μg/day s.c.).
# Tumor volumes were measured once a week. The experiment was ended on day 28 by sacrificing the mice under Isoflurane anesthesia. Resulting tumors were cleaned, weighed, and snap-frozen until further analyses. Statistical analyses of the measurement results were done by two-tailed t-test, p<0.05 being considered significant.
# [3] = target: T1, pituitary receptors (Homo sapiens, UniProt Q02643); details: biological activity on the pituitary; cited from earlier work
# T1 construct: host or cells: pituitary
# T1 sequence (Q02643 23-423): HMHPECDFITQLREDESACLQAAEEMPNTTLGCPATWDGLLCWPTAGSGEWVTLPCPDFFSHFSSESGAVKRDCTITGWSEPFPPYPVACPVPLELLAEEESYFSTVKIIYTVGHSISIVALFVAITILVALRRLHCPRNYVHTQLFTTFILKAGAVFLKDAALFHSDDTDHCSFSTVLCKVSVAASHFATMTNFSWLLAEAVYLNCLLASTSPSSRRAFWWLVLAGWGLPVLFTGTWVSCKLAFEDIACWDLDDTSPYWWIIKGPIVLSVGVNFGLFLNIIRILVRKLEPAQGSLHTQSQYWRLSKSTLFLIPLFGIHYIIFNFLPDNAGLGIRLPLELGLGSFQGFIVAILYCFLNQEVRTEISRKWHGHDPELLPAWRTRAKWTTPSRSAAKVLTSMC
# [4] = test system: rat anterior pituitary adenylate cyclase; details: cited from earlier work
# [5] = test system: GH secretion; details: cited from earlier work
# [6] = test system: H-460 human non-small cell lung cancer; test: H-460 human non-SCLC xenografts in nude mice, Experiment 1; type: in vivo; details: 10 μg/day s.c., 28 days; means±S.E.
# Description: Male nude mice were implanted s.c. with 3 mm^3 pieces of H-460 human non-SCLC tumor tissue on both flanks. When tumors had grown to a mean volume of approximately 90 mm^3, the mice were randomly assigned into 4 experimental groups with 10 animals in each group and received single daily injections for 28 days as follows: 1. Control (vehicle solution); 2. JMR-132 (10 μg/day s.c.); 3. Peptide 1109 (10 μg/day s.c.); 4. Peptide 11111 (10 μg/day s.c.). Tumor volumes were measured once a week. The experiment was ended on day 28 by sacrificing the mice under Isoflurane anesthesia. Resulting tumors were cleaned, weighed, and snap-frozen until further analyses. Statistical analyses of the measurement results were done by two-tailed t-test, p<0.05 being considered significant. Data are presented as the means±S.E.
# [7] = test system: PC-3 human hormone-independent prostate cancer; test: PC-3 human prostate cancer xenografts in nude mice, Experiment 1; type: in vivo; details: 10 μg/day s.c., daily for 35 days; means±S.E.
# Description: (§1) Male nude mice were implanted s.c. with 3 mm^3 pieces of PC-3 human hormone-independent prostate cancer tissue on both flanks. When tumors reached a volume of approx. 50 mm^3, the mice were divided into 4 experimental groups with 8 to 10 animals in each group and received single daily injections for 35 days as follows: 1. Control (vehicle solution); 2. JMR-132 (10 μg/day s.c.); 3. Peptide 1109 (10 μg/day s.c.); 4. Peptide 11111 (10 μg/day s.c.); Tumor volumes were measured once a week. The experiment was ended on day 35 by sacrificing the mice under Isoflurane anesthesia. Resulting tumors were cleaned, weighed, and snap-frozen until further analyses. Statistical analyses of the measurement results were done by two-tailed t-test, p<0.05 being considered significant. Data are presented as the means±S.E.
# [8] = test system: PC-3 human hormone-independent prostate cancer; test: PC-3 human prostate cancer xenografts in nude mice, Experiment 2; type: in vivo; details: for Inhibition (%): tumor growth after 2 weeks
# Description: as §1
# Experiment 2 was similar to Experiment 1. Experiment 2 was started when PC-3 tumors had grown to approximately 50 mm^3 in volume. At this time, the animals were divided into 5 experimental groups with 8 animals in each group, and received single daily injections for 14 days as follows: 1. Control (vehicle solution); 2. JMR-132 (10 μg/day s.c.); 3. Peptide 1109 (5 μg/day s.c.); 4. Peptide 11109 (5 μg/day s.c.); 5. Peptide 11109 (2 μg/day s.c.). Further details of Experiment 2 are the same as for Experiment 1
# [9] = test system: H-460 human non-small cell lung cancer; test: H-460 human non-SCLC xenografts in nude mice, Experiment 2; type: in vivo; details: 5 μg/day s.c.
# Description: Male nude mice were implanted s.c. with 3 mm^3 pieces of H-460 human non-SCLC tumor tissue on both flanks. When tumors had grown to a mean volume of approximately 90 mm^3, the mice were randomly assigned into 12 experimental groups with 8 to 10 animals in each group and received single daily injections for 28 days as follows: 1. Control (vehicle solution); 2. JMR-132 (10 μg/day s.c.); 3. Peptide 11109 (5 μg/day s.c.); 4. Peptide 11113 (5 μg/day s.c.); 5. Peptide 11119 (5 μg/day s.c.); 6. Peptide 11209 (5 μg/day s.c.); 7. Peptide 11313 (5 μg/day s.c.); 8. Peptide 11408 (5 μg/day s.c.); 9. Peptide 11435 (5 μg/day s.c.); 10. Peptide 11459 (5 μg/day s.c.); 11. Peptide 11469 (5 μg/day s.c.); 12. Peptide 11491 (5 μg/day s.c.). Tumor volumes were measured once a week. The experiment was ended on day 28 by sacrificing the mice under Isoflurane anesthesia. Resulting tumors were cleaned, weighed, and snap-frozen until further analyses. Statistical analyses of the measurement results were done by two-tailed t-test, p<0.05 being considered significant. Data are presented as the means±S.E.
substance,measurement,setting,value
"[PhAc^0-Tyr^1, D-Arg^2, Cpa^6, Ala^8, Har^9, Tyr(Me)^10, His^11, Orn^12, Abu^15, His^20, Orn^21, Nle^27, D-Arg^28, Har^29-Ada^30]hGH-RH(1-29)NH2 [Peptide 11457]",Tumor weights,[1]; end of experiment day 82,76 ± 166 mg
same,Tumor growth from day 1 to day 82 (%),[1]; means±S.E.,740 ± 1220 %
same,Tumor volume on day 82 (mm^3),[1]; means±S.E.,262 ± 103* mm^3
same,Effect on the growth of Panc-1 human pancreatic cancers,[1]; observed for at least 82 days,powerfully inhibited the growth of Panc-1 human pancreatic cancers
same,Tumor growth inhibition after 4 weeks (%),[2],85.98%
Tyr-Ala-Asp-Ala-lle^5-Phe-Thr-Asn-Ser-Tyr^10-Arg-Lys-Val-Leu-Gly^15-Gln-Leu-Ser-Ala-Arg^20-Lys-Leu-Leu-Gln-Asp^25-Ile-Met-Ser-Arg^29-NH2 [GH-RH(1-29)],Potency relative to native GH-RH,[3],≥ 50%
"[Ac-Tyr^1,D-Arg^2]hGH-RH(1-29)NH2 [standard antagonist]",Effect on activation of adenylate cyclase by hGH-RH(1-29)NH2,[4],prevent the activation of rat anterior pituitary adenylate cyclase
same,Effect on GH levels,[5]; a patient with acromegaly,reduced GH levels
same,Effect on nocturnal GH secretion,"[5]; normal subjects, 400 μg/kg",eliminated nocturnal GH secretion
"[(Ac-Ada)^0-Tyr^1, D-Arg^2, Cpa^6, Ala^8, Har^9, Tyr(Me)^10, His^11, Abu^15, His^20, Nle^27, D-Arg^28, Har^29]hGH-RH(1-29)NH2 [Peptide 11111]",Tumor growth after 4 weeks (%),[6],2005 ± 541%
same,Tumor growth after 5 weeks (%),[7],1215 ± 243%
"[Dca^0-Tyr^1, D-Arg^2, Cpa^6, Ala^8, Har^9, Tyr(Me)^10, His^11, Abu^15, His^20, Nle^27, D-Arg^28, Har^29]hGH-RH(1-29)NH2 [Peptide 11109]",Tumor growth after 2 weeks (%),"[8]; 2 μg/day s.c., 14 days",318%
same,Tumor growth after 2 weeks (%),"[8]; 5 μg/day s.c., 14 days",217%
same,Inhibition of PC-3 tumor growth compared with reference peptide JMR-132,"[8]; Peptide 1109 5 μg/day, Peptide 11109 5 and 2 μg/day, JMR-132 10 μg/day, 14 days",inhibited the growth of PC-3 tumors more potently than reference peptide JMR-132
same,Inhibition (%),[8]; 2 μg/day s.c.,55.55%
same,Inhibition (%),[8]; 5 μg/day s.c.,69.68%
same,Effect on the growth of H-460 lung cancers in vivo,[9]; 28 days,had no effect
same,Tumor growth after 4 weeks (%),"[9]; 28 days, means±S.E.",7890 ± 4127%
same,Inhibition (%),[9]; after 4 weeks,0.05%
